In data set [1] the test system is patients expressing HLA risk alleles. To be noted: cited from earlier work.
Data set [2] deals with T1, sHLA-B*57:01 (Homo sapiens, UniProt P01889). Description: HLA-B*57:01 fluorescence polarization competition peptide-binding assay. To be noted: competition with LF9FITC; for affinity for HLA-B*57:01 (in words): fluorescence polarization, no abacavir. Background: Polarisation of emitted light reports the rotation of a fluorescent probe.
Data set [3] addresses T1, sHLA-B*57:01. Description: Drug effect on LF9FITC peptide binding to sHLA-B*57:01.
The subject of the next data set is CD8+ T cells. Conditions: abacavir hypersensitivity; ref [14]; cited from earlier work.
The subject of another data set is HLA-B*57:01. The class given is cell-based, human. To be noted: abacavir-treated cells.
For data set [4], the target named is Soluble HLA-B*57:01 (human | human (endogenous in 721.221)). The data set can be described thus: fluorescence polarisation.

Read-outs that look alike come from different tables or passages of the source.

Regarding `Oc1ncnc2[nH]ncc12` [allopurinol], the HLA-associated drug reaction entry in data set [1] (severe cutaneous adverse reactions, HLA-B*58:01, ref [7]) is recorded as “Severe cutaneous adverse reactions associated with class I HLA”. In the case of `Cc1onc(-c2c(F)cccc2Cl)c1C(=O)N[C@@H]1C(=O)N2[C@@H]1SC(C)(C)[C@@H]2C(=O)O` [flucloxacillin], the HLA-associated drug reaction entry in data set [1] (liver injury, HLA-B*57:01, ref [8]) was “causes drug-induced liver injury in patients expressing HLA-B*57:01”. Take LSSPVTKSF [LF9]: at sHLA-B*57:01 [2], the “affinity for HLA-B*57:01 (in words)” value is “consistent with high-affinity binding”.

For the molecule `NC(=O)N1c2ccccc2C=Cc2ccccc21` [carbamazepine], the HLA-associated drug reaction result in data set [1] (severe cutaneous adverse reactions, HLA-B*15:02 [4], B*15:11 [5], A*31:01 [6], ref [4]–[6]) is on record as “Severe cutaneous adverse reactions associated with class I HLA”.

For the molecule `Nc1nc(NC2CC2)c2ncn([C@H]3C=C[C@@H](CO)C3)c2n1` [Abacavir, abacavir], at sHLA-B*57:01 [3] (200 μmol/l abacavir, in presence of competitor peptide HSL or STIR), the “LF9FITC reference binding signal in competition experiment” value is recorded as “expected increase in reference LF9FITC peptide binding signal with abacavir”. In addition, the “concentration at which the increase in LF9FITC binding starts” value at sHLA-B*57:01 [3] (fluorescence polarization at equilibrium) came out at 10 µmol/L. Also, the “tolerance of abacavir in HLA-B*57:01 individuals” value in data set [1] (HLA-B*57:01 individuals, ref (1)) was “Many HLA-B*57:01 individuals are able to tolerate abacavir and not show hypersensitivity”. Moreover, in data set [1] (drug hypersensitivity, HLA-B*57:01, ref [1]–[3]), the HLA-associated drug reaction result was “linked to HLA-B*57:01”. The “requirements of CD8+ T-cell response” value in the data set with CD8+ T cells is “CD8^+ T-cell responses require transporter of antigen presentation (TAP)/tapasin expression, antigen processing and specific amino acids in the F pocket of HLA-B*57:01”. In the data set on HLA-B*57:01, the “covalent drug-peptide adducts in peptide fractions” value is “we have not, as yet, identified covalent drug–peptide adducts in the peptide fractions”. For STIRLLTSL, the “affinity for HLA-B*57:01 (in words)” value on sHLA-B*57:01 [2] was “could strongly compete in the HLA-B*57:01 peptide-binding assay (Fig. 4a and b), with logIC50 values consistent with high-affinity binding”. For the same molecule, on sHLA-B*57:01 [2] (presence vs absence of 200 μmol/l abacavir), the “effect of abacavir on IC50 / inhibition by competitor peptide” value is given as “No significant difference in inhibition”. LSSPVTKSF [LF9 (…)] gave a log IC50 in data set [4] of 2.6.

(Values after article PMC4155923 (AIDS (London, England), 2012).)
